Measured values: patent publication US6737383B1, “Herbicidal oxadiazolidines” (priority 1999, dated 2004)

Experiments:
giant foxtail = assay: Test B pre/postemergence giant foxtail; format: in vivo, Setaria faberii
Method in brief: (§1)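 Test chemicals in a non-phytotoxic solvent mixture with surfactant were sprayed preemergence onto planted seeds and postemergence onto plants 2 to 18 cm tall (1- to 4-leaf stage). After twelve to sixteen days in a greenhouse, injury was visually rated against untreated controls from 0 (no effect) to 10 (complete control).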

crabgrass = assay: Test B pre/postemergence crabgrass; format: in vivo, Digitaria sanguinalis
Method in brief: as §1

duck salad = assay: Test B flood test duck salad; format: in vivo, Heteranthera limosa
Method in brief: (§2)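 Plants were grown to the 2-leaf stage before treatment with test chemical, then held in a greenhouse for twelve to sixteen days. Injury was visually rated against untreated controls on a 0–10 scale, where 0 is no effect and 10 is complete control.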

velvetleaf = assay: Test B pre/postemergence velvetleaf; format: in vivo, Abutilon theophrasti
Method in brief: as §1

wheat = assay: Test B pre/postemergence wheat; format: in vivo, Triticum aestivum
Method in brief: as §1

surinam grass = assay: Test B pre/postemergence surinam grass; format: in vivo, Brachiaria decumbens
Method in brief: as §1

blackgrass = assay: Test B pre/postemergence blackgrass; format: in vivo, Alopecurus myosuroides
Method in brief: as §1

corn = assay: Test B pre/postemergence corn; format: in vivo, Zea mays
Method in brief: as §1

wild oat = assay: Test B pre/postemergence wild oat; format: in vivo, Avena fatua
Method in brief: as §1

sugar beet = assay: Test B pre/postemergence sugar beet; format: in vivo, Beta vulgaris
Method in brief: as §1

morningglory = assay: Test B pre/postemergence morningglory; format: in vivo, Ipomoea hederacea
Method in brief: as §1

rape = assay: Test B pre/postemergence rape; format: in vivo, Brassica napus
Method in brief: as §1

soybean = assay: Test B pre/postemergence soybean; format: in vivo, Glycine max
Method in brief: as §1

cocklebur = assay: Test B pre/postemergence cocklebur; format: in vivo, Xanthium strumarium
Method in brief: as §1

smallflower flatsedge = assay: Test B flood test smallflower flatsedge; format: in vivo, Cyperus difformis
Method in brief: as §2

purple nutsedge = assay: Test B pre/postemergence purple nutsedge; format: in vivo, Cyperus rotundus
Method in brief: as §1

[1] = Preemergence, Rate 62 g/ha, scale of 0 to 10 where 0 is no effect and 10 is complete control
[2] = Preemergence, Rate 125 g/ha, 0 is no effect, 10 is complete control
[3] = Preemergence, Rate 250 g/ha, scale 0 to 10, 0 is no effect, 10 is complete control
[4] = Preemergence, Rate 500 g/ha, scale of 0 to 10 where 0 is no effect and 10 is complete control
[5] = Rate 62 g/ha, Postemergence, scale of 0 to 10 where 0 is no effect and 10 is complete control
[6] = Rate 125 g/ha, Postemergence, scale 0 to 10
[7] = Rate 500 g/ha, Postemergence, scale 0 to 10
[8] = Rate 62 g/ha, headed Pre-emergence (flood test species), scale 0 to 10 (0 no effect, 10 complete control)
[9] = Rate 125 g/ha, Pre-emergence, flood test species, scale 0 to 10 where 0 is no effect and 10 is complete control
[10] = Rate 250 g/ha, Pre-emergence, flood-test species, scale 0 to 10, 0 is no effect, 10 is complete control

Cc1nc(C)c(-n2c(=O)on(C(=O)N(c3ccccc3)C(C)C)c2=O)s1 [Compound 197]
5: Morningglory plant response rating (morningglory; [6]) | Plant response rating (0 to 10; 0 is no effect, 10 is complete control), Morningglory (morningglory; Rate 250 g/ha, Postemergence)
0: Giant foxtail plant response rating (giant foxtail; [1]) | Giant foxtail plant response rating (0 to 10 scale) (giant foxtail; [2]) | Giant foxtail plant response rating (giant foxtail; [3]) | Giant foxtail plant response rating (giant foxtail; [5]) | Giant foxtail plant response rating (giant foxtail; [6]) | Plant response rating (0 to 10; 0 is no effect, 10 is complete control), Giant foxtail (giant foxtail; Rate 250 g/ha, Postemergence) | Crabgrass plant response rating (crabgrass; [1]) | Crabgrass plant response rating (0 to 10 scale) (crabgrass; [2]) | Crabgrass plant response rating (crabgrass; [3]) | Crabgrass plant response rating (crabgrass; [5]) | Crabgrass plant response rating (crabgrass; [6]) | Plant response rating (0 to 10; 0 is no effect, 10 is complete control), Crabgrass (crabgrass; Rate 250 g/ha, Postemergence) | Ducksalad plant response rating (duck salad; [8]) | Ducksalad plant response rating (duck salad; [9]) | Ducksalad plant response rating (duck salad; [10]) | Plant response rating, Ducksalad (duck salad; Rate 500 g/ha, headed Pre-emergence (flood test species), scale 0 to 10 (0 no effect, 10 complete control)) | Velvetleaf plant response rating (velvetleaf; [1]) | Velvetleaf plant response rating (velvetleaf; [3]) | Plant response rating, Velvetleaf (velvetleaf; [4]) | Velvetleaf plant response rating (velvetleaf; [5]) | Velvetleaf plant response rating (velvetleaf; [6]) | Plant response rating (0 to 10; 0 is no effect, 10 is complete control), Velvetleaf (velvetleaf; Rate 250 g/ha, Postemergence) | Wheat plant response rating (wheat; [1]) | Wheat plant response rating (wheat; [3]) | Plant response rating, Wheat (wheat; [4]) | Wheat plant response rating (wheat; [5]) | Wheat plant response rating (wheat; [6]) | Plant response rating (0 to 10; 0 is no effect, 10 is complete control), Wheat (wheat; Rate 250 g/ha, Postemergence) | B. signalgrass plant response rating (surinam grass; [1]) | B. signalgrass plant response rating (0 to 10 scale) (surinam grass; [2]) | B. signalgrass plant response rating (surinam grass; [3]) | Plant response rating, B. signalgrass (surinam grass; [4]) | B. signalgrass plant response rating (surinam grass; [5]) | B. signalgrass plant response rating (surinam grass; Rate 125 g/ha, Postemergence, scale 0 (no effect) to 10 (complete control)) | Plant response rating, B. signalgrass (surinam grass; Rate 250 g/ha, Postemergence, scale 0 to 10, 0 is no effect, 10 is complete control) | B. signalgrass plant response rating (surinam grass; Rate 500 g/ha, Postemergence, scale 0 to 10, 0 no effect, 10 complete control) | Blackgrass plant response rating (blackgrass; [1]) | Blackgrass plant response rating (0 to 10 scale) (blackgrass; [2]) | Blackgrass plant response rating (blackgrass; [3]) | Plant response rating, Blackgrass (blackgrass; [4]) | Blackgrass plant response rating (blackgrass; [5]) | Blackgrass plant response rating (blackgrass; [6]) | Plant response rating (0 to 10; 0 is no effect, 10 is complete control), Blackgrass (blackgrass; Rate 250 g/ha, Postemergence) | Blackgrass plant response rating (blackgrass; [7]) | Corn plant response rating (corn; [1]) | Corn plant response rating (0 to 10 scale) (corn; [2]) | Corn plant response rating (corn; [3]) | Plant response rating, Corn (corn; [4]) | Corn plant response rating (corn; [5]) | Corn plant response rating (corn; [6]) | Plant response rating (0 to 10; 0 is no effect, 10 is complete control), Corn (corn; Rate 250 g/ha, Postemergence) | Corn plant response rating (corn; [7]) | Wild oats plant response rating (wild oat; [1]) | Wild oats plant response rating (wild oat; [3]) | Plant response rating, Wild oats (wild oat; [4]) | Wild oats plant response rating (wild oat; [5]) | Wild oats plant response rating (wild oat; [6]) | Plant response rating (0 to 10; 0 is no effect, 10 is complete control), Wild oats (wild oat; Rate 250 g/ha, Postemergence) | Sugarbeets plant response rating (sugar beet; [1]) | Sugarbeets plant response rating (0 to 10 scale) (sugar beet; [2]) | Sugarbeets plant response rating (sugar beet; [3]) | Plant response rating, Sugarbeets (sugar beet; [4]) | Sugarbeets plant response rating (sugar beet; [5]) | Sugarbeets plant response rating (sugar beet; [6]) | Plant response rating (0 to 10; 0 is no effect, 10 is complete control), Sugarbeets (sugar beet; Rate 250 g/ha, Postemergence) | Sugarbeets plant response rating (sugar beet; [7]) | Morningglory plant response rating (morningglory; [1]) | Morningglory plant response rating (0 to 10 scale) (morningglory; [2]) | Morningglory plant response rating (morningglory; [3]) | Plant response rating, Morningglory (morningglory; [4]) | Morningglory plant response rating (morningglory; [7]) | Rape plant response rating (rape; [1]) | Rape plant response rating (0 to 10 scale) (rape; [2]) | Rape plant response rating (rape; [3]) | Plant response rating, Rape (rape; [4]) | Rape plant response rating (rape; [5]) | Rape plant response rating (rape; [6]) | Plant response rating (0 to 10; 0 is no effect, 10 is complete control), Rape (rape; Rate 250 g/ha, Postemergence) | Rape plant response rating (rape; [7]) | Soybean plant response rating (soybean; [1]) | Soybean plant response rating (0 to 10 scale) (soybean; [2]) | Soybean plant response rating (soybean; [3]) | Plant response rating, Soybean (soybean; [4]) | Soybean plant response rating (soybean; [5]) | Soybean plant response rating (soybean; [6]) | Plant response rating (0 to 10; 0 is no effect, 10 is complete control), Soybean (soybean; Rate 250 g/ha, Postemergence) | Soybean plant response rating (soybean; [7]) | Cocklebur plant response rating (cocklebur; [1]) | Cocklebur plant response rating (0 to 10 scale) (cocklebur; [2]) | Cocklebur plant response rating (cocklebur; [3]) | Plant response rating, Cocklebur (cocklebur; [4]) | Cocklebur plant response rating (cocklebur; [5]) | Cocklebur plant response rating (cocklebur; [6]) | Plant response rating (0 to 10; 0 is no effect, 10 is complete control), Cocklebur (cocklebur; Rate 250 g/ha, Postemergence) | Cocklebur plant response rating (cocklebur; [7]) | S. Flatsedge plant response rating (smallflower flatsedge; [8]) | S. Flatsedge plant response rating (smallflower flatsedge; [9]) | S. Flatsedge plant response rating (smallflower flatsedge; [10]) | S. Flatsedge plant response rating (smallflower flatsedge; Rate 500 g/ha, Pre-emergence, flood test species, scale 0 to 10 (0 no effect, 10 complete control)) | Nutsedge plant response rating (purple nutsedge; [1]) | Nutsedge plant response rating (0 to 10 scale) (purple nutsedge; [2]) | Nutsedge plant response rating (purple nutsedge; [3]) | Plant response rating, Nutsedge (purple nutsedge; [4]) | Nutsedge plant response rating (purple nutsedge; [5]) | Nutsedge plant response rating (purple nutsedge; [6]) | Plant response rating (0 to 10; 0 is no effect, 10 is complete control), Nutsedge (purple nutsedge; Rate 250 g/ha, Postemergence) | Nutsedge plant response rating (purple nutsedge; [7])
3: Plant response rating, Giant foxtail (giant foxtail; [4]) | Giant foxtail plant response rating (giant foxtail; [7]) | Plant response rating, Crabgrass (crabgrass; [4]) | Morningglory plant response rating (morningglory; [5])
2: Crabgrass plant response rating (crabgrass; [7])
